Assay results: ChEMBL document CHEMBL1136078, “Fundamental structure-activity relationships associated with a new structural class of respiratory syncytial virus inhibitor” (Bioorg Med Chem Lett, 2003); call rule not given here

Key:
[1] = tested on: Respiratory syncytial virus; assay: Antiviral activity against respiratory syncytial virus in HEp-2 human lung carcinoma cell line; […]; type: functional, organism-based
[2] = tested on: Respiratory syncytial virus; assay: Antiviral activity against respiratory syncytial virus in HEp-2 human lung carcinoma cell line; type: functional, organism-based
[3] = tested on: HEp-2; assay: Concentration that causes cytotoxicity to uninfected HEp-2 human lung carcinoma cell line; type: functional

| SMILES | EC50 [1] | EC50 [2] | CC50 [3] |
| --- | --- | --- | --- |
| CCN(CC)CCCn1c(Cn2nnc3ccccc32)nc2ccccc21 | Not Active | – | – |
| CN(C)CCCn1c(Cn2nc3ccccc3n2)nc2ccccc21 | – | 3.6 µM | 182 µM |
| N#CCCn1c(Cn2nnc3ccccc32)nc2ccccc21 | – | 2.69 µM | 49.3 µM |
| CC(=O)CCn1c(Cn2nnc3ccccc32)nc2ccccc21 | – | 0.52 µM | 59 µM |
| c1ccc2[nH]c(Cn3nnc4ccccc43)nc2c1 | – | 31.1 µM | 164 µM |
| CC(C)CCCn1c(Cn2nnc3ccccc32)nc2ccccc21 | – | 0.19 µM | 24 µM |
| c1ccc(CCn2c(Cn3nnc4ccccc43)nc3ccccc32)cc1 | – | 0.77 µM | 2.6 µM |
| OC(Cn1c(Cn2nnc3ccccc32)nc2ccccc21)c1ccccc1 (stereo not given) | – | 0.59 µM | 37.6 µM |
| CCCCn1c(Cn2nnc3ccccc32)nc2ccccc21 | – | 0.066 µM | 12 µM |
| CC(C)(C)OC(=O)CCn1c(Cn2nnc3ccccc32)nc2ccccc21 | – | 4.31 µM | 9.98 µM |
| CN(C)CCCn1c(Cn2nnc3ccccc32)nc2ccccc21 | – | 1.1 µM | 197 µM |
| O=C(Cn1c(Cn2nnc3ccccc32)nc2ccccc21)c1ccccc1 | – | 2.2 µM | 18 µM |
| c1ccc(Cn2c(Cn3nnc4ccccc43)nc3ccccc32)cc1 | – | 10.5 µM | 9 µM |
| OCCn1c(Cn2nnc3ccccc32)nc2ccccc21 | – | 7.7 µM | 205 µM |
| CCN(CC)OC(=O)Cn1c(Cn2nnc3ccccc32)nc2ccccc21 | Not Active | – | 250 µM |
| CC(C)CCn1c(Cn2nc3ccccc3n2)nc2ccccc21 | – | 0.44 µM | 13.5 µM |

| SMILES | EC50 [1] | EC50 [2] | CC50 [3] |
| --- | --- | --- | --- |
| CC(C)n1c(Cn2nnc3ccccc32)nc2ccccc21 | – | 15.5 µM | 129 µM |
| CC(C)Cn1c(Cn2nc3ccccc3n2)nc2ccccc21 | – | 47.5 µM | 106 µM |
| O=C(O)Cn1c(Cn2nnc3ccccc32)nc2ccccc21 | Not Active | – | 303 µM |
| CCN(CC)OC(=O)Cn1c(Cn2nc3ccccc3n2)nc2ccccc21 | Not Active | – | – |
| CC(C)=CCn1c(Cn2nnc3ccccc32)nc2ccccc21 | – | 3.3 µM | 102 µM |
| C[S+]([O-])CCn1c(Cn2nnc3ccccc32)nc2ccccc21 (stereo not given) | – | 0.43 µM | 56.4 µM |
| CC(C)CCn1c(Cn2nnc3ccccc32)nc2ccccc21 | – | 0.1 µM | 39.9 µM |
| O=C(O)CCn1c(Cn2nnc3ccccc32)nc2ccccc21 | – | 18.1 µM | 184 µM |
| CC(C)Cn1c(Cn2nnc3ccccc32)nc2ccccc21 | Not Active | – | 15.5 µM |
| CC(C)n1c(Cn2nc3ccccc3n2)nc2ccccc21 | – | 51.5 µM | 58 µM |
| CSCCn1c(Cn2nnc3ccccc32)nc2ccccc21 | – | 0.3 µM | 166 µM |
| COC(=O)Cn1c(Cn2nnc3ccccc32)nc2ccccc21 | Not Active | – | 374 µM |
| NC(=O)CCn1c(Cn2nnc3ccccc32)nc2ccccc21 | – | 2.1 µM | 4.28 µM |
| CC(O)CCn1c(Cn2nnc3ccccc32)nc2ccccc21 (stereo not given) | – | 0.12 µM | > 309 µM |
| CS(=O)(=O)CCn1c(Cn2nnc3ccccc32)nc2ccccc21 | – | 0.25 µM | 337 µM |
